Measured values as given in patent US7629367B2, “N-(2-benzyl)-2-phenylbutanamides as androgen receptor modulators” (Merck & Co., Inc., priority 2004, dated 2009).

Biological target: T1, androgen receptor (Homo sapiens, UniProt P10275)
T1 sequence (P10275 1-920): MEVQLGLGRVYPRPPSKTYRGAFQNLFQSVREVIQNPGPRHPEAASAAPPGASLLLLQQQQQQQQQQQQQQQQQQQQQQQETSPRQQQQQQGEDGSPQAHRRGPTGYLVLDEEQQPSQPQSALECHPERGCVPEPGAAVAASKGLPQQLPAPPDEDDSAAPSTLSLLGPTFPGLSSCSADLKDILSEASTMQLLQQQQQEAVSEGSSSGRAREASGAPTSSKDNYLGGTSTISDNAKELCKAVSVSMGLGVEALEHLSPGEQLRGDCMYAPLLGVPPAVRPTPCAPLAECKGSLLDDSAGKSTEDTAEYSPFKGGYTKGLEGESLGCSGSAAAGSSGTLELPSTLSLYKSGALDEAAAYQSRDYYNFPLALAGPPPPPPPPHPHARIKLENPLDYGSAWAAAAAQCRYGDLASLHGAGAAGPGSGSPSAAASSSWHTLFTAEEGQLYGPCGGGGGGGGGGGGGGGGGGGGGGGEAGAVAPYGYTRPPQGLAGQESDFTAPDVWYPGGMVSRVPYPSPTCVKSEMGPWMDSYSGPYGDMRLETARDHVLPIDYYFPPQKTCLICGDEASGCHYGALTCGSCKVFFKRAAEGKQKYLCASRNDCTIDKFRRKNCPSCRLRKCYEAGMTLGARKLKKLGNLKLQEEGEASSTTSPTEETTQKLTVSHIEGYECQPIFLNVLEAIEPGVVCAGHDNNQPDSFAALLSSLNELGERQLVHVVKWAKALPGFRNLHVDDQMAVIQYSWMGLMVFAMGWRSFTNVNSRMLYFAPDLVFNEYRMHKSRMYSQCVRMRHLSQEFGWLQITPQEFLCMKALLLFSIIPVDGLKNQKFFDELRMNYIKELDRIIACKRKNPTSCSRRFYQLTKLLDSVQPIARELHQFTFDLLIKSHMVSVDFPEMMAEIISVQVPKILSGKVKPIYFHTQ
Experiment: biochemical assays (not further specified)
Conditions: compound coupled from the second-peak acid (RT=21 min)

## Cc1cnc(F)c(CNC(=O)C(O)(c2ccccc2)C(F)(F)C(F)(F)F)c1 (single isomer, unassigned) [Example 3-2, (2R or 2S)-3,3,4,4,4-pentafluoro-N-[(2-fluoro-5-methylpyridin-3-yl)methyl]-2-hydroxy-2-phenylbutanamide]
  activity in the biochemical assays: active
